Assay results from patent US5614533A, “Substituted pipecolinic acid derivatives as HIV protease inhibitors” (Bio-Mega/Boehringer Ingelheim Research, Inc., priority 1994, dated 1997).

Columns and labels:
[1] = molecular target: T1, HIV protease (Human immunodeficiency virus type 1 group M subtype B, UniProt P04585); experiment: Recombinant HIV Protease HPLC Assay; format: biochemical; details: Table IV; 37°, 30 min, pH 5.5
T1 construct: HIV protease was expressed in E. coli; made in house; host or cells: E. coli (plasmid pBRT1 prt+)
From the text: The procedure is based on the capacity of the test compound to inhibit enzymatic cleavage by HIV protease of a decapeptide (the substrate) having an amino acid sequence which includes a known HIV protease cleavage site of a HIV polyprotein; see H. G. Krausslich et al., Proc. Natl. Acad. Sci. USA, 86, 807 (1989). Details of this assay together with the results obtained for exemplified compounds of formula 1 are described in the examples hereinafter.
Recombinant HIV Protease HPLC Assay:
Enzyme: HIV protease was expressed in E. coli {construct pBRT1 prt^+, see W. G. Farmerie et al., Science, 236, 305 (1987)}, according to the following protocol:
E. coli cells containing the pBRT1 prt^+ plasmid were used to inoculate a seed culture media composed of Luria-Bertani Broth containing 100 μg/mL of ampicillin. Flasks were incubated at 37° under agitation for 17 h. Production flasks containing sterile M9 broth, supplemented with 100 μg/mL of ampicillin, were inoculated at a level of 1% (v/v) using the seed culture described above. Total volume in each production flask was 500 mL in a 2 L Erlenmeyer flask. Flasks were incubated at 37° under agitation until a cell concentration corresponding to an optical density ([…]) of 0.6 was reached (no dilution). This time span was routinely 3-4 h. Flasks were then supplemented with 5 mM isopropylthiogalactoside (IPTG, Research Organics, Cleveland, Ohio, USA) and incubation was continued until the cell concentration reached an optical density of 0.2 at 16-fold dilution. Flasks were then supplemented with 1 mM phenylmethylsulfonyl fluoride (PMSF) and rapidly chilled to 4°. The bacterial cells were recovered by centrifugation at 4°. The wet pellet was stored at -70°.
All steps below were performed at 4° unless otherwise indicated. Thawed cells were mixed with buffer A {50 mM tris(hydroxymethyl)[…] HCl (Tris-HCl, pH 7.4); 0.6 mM ethylenediaminetetraacetic acid (EDTA); 0.375M NaCl, 0.2% Nonidet P-40® (BDH Chemicals Ltd., Poole, UK); 1 mM PMSF}, at a ratio of one part cells to nine parts buffer A. Diatomaceous earth (Celite 545®, John Manville, Lompoc, Calif. USA) was added at a ratio of two parts to one part of wet cell weight. The resulting slurry was homogenized at high speed (ca. 20,000 rpm) on a Waring® industrial blender for 8×15 sec. pulses. Cell debris/Celite® was collected by centrifugation and the resulting pellet was extracted with 4.5 parts of buffer A to one part wet solids using the homogenization procedure described above. Supernatants from both homogenization steps were combined and soluble protein was precipitated by the addition of solid (NH4)2 SO4 to yield a final concentration of 75% saturation. This mixture was agitated for 60 min and the precipitate was recovered by centrifugation. The resulting pellet was suspended in buffer B {50 mM Tris-HCl, pH 8; 30 mM NaCl; 1 mM DL-dithiothreitol (DTT); 1 mM EDTA; 1 mM PMSF; 10% glycerol}, and dialyzed for 18 h against the same buffer.
An aliquot of the dialyzed extract containing 150 mg of the protein was loaded onto a Sephadex A25® anion exchange column (Pharmacia, Uppsala, Sweden) with bed dimensions of 70 cm length and 2.5 cm diameter. The sample was eluted isocratically with buffer B at a linear flow rate of 10 cm/h. Fractions containing HIV protease activity (see below for assay description) were combined, and soluble protein was precipitated by the addition of saturated aqueous (NH4)2 SO4 to yield a total (NH4)2 SO4 concentration of 85% saturation. Precipitated protein was removed by centrifugation and the resulting pellet was dissolved in buffer C {50 mM 2-(4-morpholino)ethanesulfonic acid (MES), pH 5.5; 150 mM NaCl; 1 mM DTT; 1 mM EDTA; 10% glycerol}. This preparation was dialyzed for 18 h against buffer C, and then frozen at -70°. All crude extracts were purified by chromatography in aliquots containing 150 mg of protein in the same manner as described above. […]

[2] = tested on: HIV (H9/HTLV-IIIB) in C8166 cells; experiment: plaque assay: inhibition of syncytia formation in HIV-infected C8166 cells; format: cell-based; details: Human immunodeficiency virus 1, IIIB, Table IV, 72 h, 50% inhibition of syncytia formation
From the text: Typical of such procedures are those described by S. Harada and N. Yamamoto, Jpn. J. Cancer Res. (Gann), 76, 432 (1985), and S. Harada et al., Science, 229, 563 (1985). An assay based on the latter procedures is described in the examples hereinafter.
The following protocol, used for screening antiviral effects of the compounds of formula 1, is adapted from a plaque assay utilizing HTLV-I transformed cells, previously reported by Harada et al., supra. HTLV-I transformed cells are used because of the rapidity with which HIV will replicate in the cells.
1. The test compound is dissolved in dimethylsulfoxide to a concentration of 5 mg/mL. The resultant solution can be stored at 4° until use.
2. The resultant solution is diluted in RPMI 1640 (Gibco Laboratories, St. Lawrence, Mass., USA) to four times (4×) the final concentration which is to be tested. Once diluted in RPMI 1640, the solution is used in the cell culture assay within 4 h.
3. The 4× solution (50 μL) is added to triplicate wells of a 96 well flat bottomed microtiter plate. RPMI (50 μL) also is added to control wells.
4. C8166 cells (5×10^4) in 50 μL of HEPES-buffered RPMI 1640 (pH=7.2), 10% heat inactivated fetal calf serum (FCS), […] gentamicin (complete media) are added to all wells.
5. Fifty times TCID50 of H9/HTLV-IIIB stock (stored in liquid nitrogen as cell culture supernatant in 50% FCS) in 100 μL of complete media is added to all wells. Infectious titer of virus stocks are as previously determined by end point dilution on C8166 cells. Titer of stocks are stable for 6-12 months when stored at -193°.
6. Microtiter plates are then placed on level shelves of a 37°, 5% CO2 humidified incubator for 72 h.
7. Plates are then removed and centers of syncytia are counted in each well by low power phase contrast light microscopy. […] Control wells should have between 25 and 75 centers of syncytia per well.
8. Percent inhibition of syncytia formation is calculated by the formula: [formula]
The concentration of the test compound which causes a 50% inhibition of syncytia formation, i.e. the EC50, is determined by using the technique of serial dilution of the working solution at step 3 and by using non-linear regression analysis (SAS® program) to graphically plot the observed percent inhibition of syncytia formation against the various concentrations of the test compound.

Structure (SMILES): CC(C)(C)NC(=O)[C@@H]1C[C@H](c2ccccc2)CCN1C[C@@H](O)[C@H](Cc1ccccc1)NC(=O)[C@H](CC(N)=O)NC(=O)OCc1ccccc1 [Table IV, entry 12]
- IC50 [1]: 6.3 nM
- EC50 [2]: 150 nM

Structure (SMILES): CC(C)[C@H](NC(=O)OCc1ccccc1)C(=O)N[C@@H](Cc1ccccc1)[C@H](O)CN1CC[C@@H](Cc2ccccc2)C[C@H]1C(=O)NC(C)(C)C [Table IV, entry 13]
- IC50 [1]: 4.1 nM
- EC50 [2]: 40 nM

Structure (SMILES): CC(C)[C@H](NC(=O)OCc1ccccc1)C(=O)N[C@@H](Cc1ccccc1)[C@H](O)CN1CC[C@@H](S(=O)(=O)c2ccccc2)C[C@H]1C(=O)NC(C)(C)C [Table IV, entry 14]
- IC50 [1]: 2.3 nM
- EC50 [2]: 40 nM

Structure (SMILES): CC(C)(C)NC(=O)[C@@H]1C[C@H](S(=O)(=O)c2ccccc2)CCN1C[C@@H](O)[C@H](Cc1ccccc1)NC(=O)[C@H](CC(N)=O)NC(=O)OCc1ccccc1 [Table IV, entry 15]
- IC50 [1]: 2.9 nM
- EC50 [2]: 1270 nM

Structure (SMILES): CC(C)[C@H](NC(=O)OCc1ccccc1)C(=O)N[C@@H](Cc1ccccc1)[C@H](O)CN1CC[C@@H](Oc2ccccc2)C[C@H]1C(=O)NC(C)(C)C [Table IV, entry 16]
- IC50 [1]: 2.7 nM
- EC50 [2]: 150 nM

Structure (SMILES): CC(C)(C)NC(=O)[C@@H]1C[C@H](Oc2ccccc2)CCN1C[C@@H](O)[C@H](Cc1ccccc1)NC(=O)[C@H](CC(N)=O)NC(=O)OCc1ccccc1 [Table IV, entry 17]
- IC50 [1]: 2.5 nM
- EC50 [2]: 42 nM

Structure (SMILES): CC(C)[C@H](NC(=O)OCc1ccccc1)C(=O)N[C@@H](Cc1ccccc1)[C@H](O)CN1CC[C@@H](Oc2ccccn2)C[C@H]1C(=O)NC(C)(C)C [Table IV, entry 18]
- IC50 [1]: 1.8 nM
- EC50 [2]: 56 nM

Structure (SMILES): CC(C)[C@H](NC(=O)OCc1ccccc1)C(=O)N[C@@H](Cc1ccccc1)[C@H](O)CN1CC[C@@H](C2CCCCC2)C[C@H]1C(=O)NC(C)(C)C [Table IV, entry 19]
- IC50 [1]: 8 nM
- EC50 [2]: 200 nM

Structure (SMILES): CC(C)[C@H](NC(=O)c1ccc2ccccc2n1)C(=O)N[C@@H](Cc1ccccc1)[C@H](O)CN1CC[C@@H](Sc2ccccc2)C[C@H]1C(=O)NC(C)(C)C [Table IV, entry 20, N-tert-butyl-1-{2(R)-hydroxy-4-phenyl-3(S)-{(N-(2-quinolinylcarbonyl)valyl}amino}butyl}-4(R)-(phenylthio)piperidine-2(S)-carboxamide]
- IC50 [1]: 3.1 nM
- EC50 [2]: 12 nM

Structure (SMILES): CC(C)(C)NC(=O)[C@@H]1C[C@H](Oc2ccccc2)CCN1C[C@@H](O)[C@H](Cc1ccccc1)NC(=O)[C@H](CC(N)=O)NC(=O)c1ccc2ccccc2n1 [Table IV, entry 21, N-tert-butyl-1-{2(R)-hydroxy-4-phenyl-3(S)-{{N-(2-quinolinylcarbonyl)asparaginyl}amino}butyl}-4(R)-phenoxypiperidine-2(S)-carboxamide]
- IC50 [1]: 5.4 nM
- EC50 [2]: 15 nM

Structure (SMILES): CC(C)(C)NC(=O)[C@@H]1C[C@H](S(=O)(=O)c2ccccc2)CCN1C[C@@H](O)[C@H](Cc1ccccc1)NC(=O)[C@H](CC(N)=O)NC(=O)c1ccc2ccccc2n1 [Table IV, entry 22, N-tert-butyl-1-{2(R)-hydroxy-4-phenyl-3(S)-{{N-(2-quinolinylcarbonyl)asparaginyl}amino}butyl}-4(R)-(phenylsulfonyl)piperidine-2(S)-carboxamide]
- IC50 [1]: 4.7 nM
- EC50 [2]: 450 nM

Structure (SMILES): CC(C)(C)NC(=O)[C@@H]1C[C@H](Sc2ccccc2)CCN1C[C@@H](O)[C@H](Cc1ccccc1)NC(=O)[C@H](CC(N)=O)NC(=O)c1ccc2ccccc2n1 [Table IV, entry 23, N-tert-butyl-1-{2(R)-hydroxy-4-phenyl-3(S)-{{N-(2-quinolinylcarbonyl)asparaginyl}amino}butyl}-4(R)-(phenylthio)piperidine-2(S)-carboxamide]
- IC50 [1]: 1.8 nM
- EC50 [2]: 10 nM

Structure (SMILES): CC(C)[C@H](NC(=O)c1ccc2ccccc2c1)C(=O)N[C@@H](Cc1ccccc1)[C@H](O)CN1CC[C@@H](Sc2ccccc2)C[C@H]1C(=O)NC(C)(C)C [Table IV, entry 24, N-tert-butyl-1-{2(R)-hydroxy-4-phenyl-3(S)-{{N-(2-naphthalenylcarbonyl)valyl}amino}butyl}-4(R)-(phenylthio)piperidine-2(S)-carboxamide]
- IC50 [1]: 2.3 nM
- EC50 [2]: 16 nM

Structure (SMILES): CC(C)(C)NC(=O)[C@@H]1C[C@H](Sc2ccccc2)CCN1C[C@@H](O)[C@H](Cc1ccccc1)NC(=O)[C@H](CC(N)=O)NC(=O)c1ccc2ccccc2c1 [Table IV, entry 25, N-tert-butyl-1-{2(R)-hydroxy-3(S)-{{N-(2-naphthalenylcarbonyl)asparaginyl}amino}-4-phenylbutyl}-4(R)-(phenylthio)piperidine-2(S)-carboxamide]
- IC50 [1]: 1.9 nM
- EC50 [2]: 33 nM

Structure (SMILES): CC(C)[C@H](NC(=O)OCc1ccccc1)C(=O)N[C@@H](Cc1ccc(F)cc1)[C@H](O)CN1CC[C@@H](Sc2ccccc2)C[C@H]1C(=O)NC(C)(C)C [Table IV, entry 26, N-tert-butyl-1-{3(S)-{{N-(benzyloxycarbonyl)valyl}amino}-2(R)-hydroxy-4-(4-fluorophenyl)butyl}-4(R)-(phenylthio)piperidine-2(S)-carboxamide]
- IC50 [1]: 3.5 nM
- EC50 [2]: 24 nM

Structure (SMILES): CC[C@H](C)[C@H](NC(=O)OCc1ccccn1)C(=O)N[C@@H](Cc1ccccc1)[C@H](O)CN1CC[C@@H](c2ccccc2)C[C@H]1C(=O)NC(C)(C)C [Table IV, entry 27, N-tert-butyl-1-{2(R)-hydroxy-4-phenyl-3(S)-{{N-{(2-pyridinylmethoxy)carbonyl}isoleucyl}amino}butyl}-4(R)-phenylpiperidine-2(S)-carboxamide]
- IC50 [1]: 4.9 nM
- EC50 [2]: 500 nM

Structure (SMILES): CC(C)(C)NC(=O)[C@@H]1C[C@H](Sc2ccccn2)CCN1C[C@@H](O)[C@H](Cc1ccccc1)NC(=O)OCc1ccccc1 [Table IV, entry 28]
- IC50 [1]: 16 nM
- EC50 [2]: 500 nM
